{"source": "patent US20220089592A1", "about": "“IMIDAZO[1,2-A]PYRIDINYL DERIVATIVES AS IRAK4 INHIBITORS” (priority 2019, published 2022)", "note": "Counter-ions that a name gives are not always drawn."}
{"target": "T1, IRAK4 (Homo sapiens, UniProt Q9NWZ3)", "T1 sequence (Q9NWZ3 1-460)": "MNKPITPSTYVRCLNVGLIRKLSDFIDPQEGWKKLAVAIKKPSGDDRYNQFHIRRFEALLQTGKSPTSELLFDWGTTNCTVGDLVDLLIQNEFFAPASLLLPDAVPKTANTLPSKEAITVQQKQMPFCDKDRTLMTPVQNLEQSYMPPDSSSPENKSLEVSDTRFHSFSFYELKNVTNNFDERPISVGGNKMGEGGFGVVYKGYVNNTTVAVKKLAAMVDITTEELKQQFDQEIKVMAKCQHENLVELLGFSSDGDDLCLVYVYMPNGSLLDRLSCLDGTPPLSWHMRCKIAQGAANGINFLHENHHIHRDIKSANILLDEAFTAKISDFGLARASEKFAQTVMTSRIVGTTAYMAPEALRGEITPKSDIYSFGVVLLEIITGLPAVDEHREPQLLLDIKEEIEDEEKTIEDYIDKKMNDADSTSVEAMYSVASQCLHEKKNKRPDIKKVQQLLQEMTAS", "test": "2-hour 1 mM ATP IRAK4 Biochemical assay (as above, but with 100 pM IRAK4 and 1 mM ATP)", "conditions": "IRAK4 MSD BIOCHEMICAL (1 mM ATP) IC50 (μM), 100 pM IRAK4, 2 hours", "in_short": "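Run with 100 pM IRAK4 and 1 mM ATP for 2 hours, quenched with EDTA pH 8. Phosphorylated biotinylated peptide captured on streptavidin MSD plates and detected with anti-phosphothreonine antibody plus Sulfo-Tag secondary by electrochemiluminescence.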", "units": {"IC50": "µM"}}
{"smiles": "CC(Oc1cc2nc(C34COC(C)(C3)C4)cn2cc1NC(=O)c1ccn(C)n1)C(F)(F)F", "note": "(centres unmarked) [Example 399, 1-methyl-N-(2-(1-methyl-2-oxabicyclo[2.1.1]hexan-4-yl)-7-((1,1,1-trifluoropropan-2-yl)oxy)imidazo[1,2-a]pyridin-6-yl)-1H-pyrazole-3-carboxamide 2,2,2-trifluoracetate]", "IC50": 0.001}
{"smiles": "COc1ccccc1C(=O)Nc1cn2cc(Cl)nc2cc1OC(C)C", "note": "[Example 400, N-(2-chloro-7-isopropoxyimidazo[1,2-a]pyridin-6-yl)-2-methoxybenzamide 2,2,2-trifluoroacetate]", "IC50": 0.054}
{"smiles": "COc1ncccc1C(=O)Nc1cn2cc(Cl)nc2cc1OC(C)C", "note": "[Example 401, N-(2-chloro-7-isopropoxyimidazo[1,2-a]pyridin-6-yl)-2-methoxynicotinamide]", "IC50": 0.027}
{"smiles": "COc1c(F)cccc1C(=O)Nc1cn2cc(Cl)nc2cc1OC(C)C", "note": "[Example 402, N-(2-chloro-7-isopropoxyimidazo[1,2-a]pyridin-6-yl)-3-fluoro-2-methoxybenzamide 2,2,2-trifluoroacetate]", "IC50": 0.157}
{"smiles": "CC(C)Cc1cc2nc(C3CCOCC3)cn2cc1NC(=O)c1cccc(C(F)F)n1", "note": "[Example 404, 6-(difluoromethyl)-N-(7-isobutyl-2-(tetrahydro-2H-pyran-4-yl)imidazo[1,2-a]pyridin-6-yl)picolinamide]", "IC50": 0.004}
{"smiles": "O=C(Nc1cn2cc(C3CCOCC3)nc2cc1Cl)c1cccc(C(F)F)n1", "note": "[Example 405, N-(7-chloro-2-(tetrahydro-2H-pyran-4-yl)imidazo[1,2-a]pyridin-6-yl)-6-(difluoromethyl)picolinamide 2,2,2-trifluoroacetate]", "IC50": 0.006}
{"smiles": "Cc1cc(NC(=O)c2cccc(C(F)F)n2)cn2cc(C34COC(C)(C3)C4)nc12", "note": "[Example 406, 6-(difluoromethyl)-N-(8-methyl-2-(1-methyl-2-oxabicyclo[2.1.1]hexan-4-yl)imidazo[1,2-a]pyridin-6-yl)picolinamide]", "IC50": 0.032}
{"smiles": "COc1c(F)cccc1C(=O)Nc1cc(C)c2nc(C34COC(C)(C3)C4)cn2c1", "note": "[Example 407, 3-fluoro-2-methoxy-N-(8-methyl-2-(1-methyl-2-oxabicyclo[2.1.1]hexan-4-yl)imidazo[1,2-a]pyridin-6-yl)benzamide]", "IC50": 0.732}
{"smiles": "Cc1cc(NC(=O)c2cccc3ccnn23)cn2cc(C34COC(C)(C3)C4)nc12", "note": "[Example 408, N-(8-methyl-2-(1-methyl-2-oxabicyclo[2.1.1]hexan-4-yl)imidazo[1,2-a]pyridin-6-yl)pyrazolo[1,5-a]pyridine-7-carboxamide 2,2,2-trifluoroacetate]", "IC50": 0.025}
{"smiles": "Cc1cc(NC(=O)c2ccn(C)n2)cn2cc(C34COC(C)(C3)C4)nc12", "note": "[Example 409, 1-methyl-N-(8-methyl-2-(1-methyl-2-oxabicyclo[2.1.1]hexan-4-yl)imidazo[1,2-a]pyridin-6-yl)-1H-pyrazole-3-carboxamide 2,2,2-trifluoroacetate]", "IC50": 0.534}
{"smiles": "CCOc1cc(NC(=O)c2cccc(C(F)F)n2)cn2cc(C34COC(C)(C3)C4)nc12", "note": "[Example 414, 6-(difluoromethyl)-N-(8-ethoxy-2-(1-methyl-2-oxabicyclo[2.1.1]hexan-4-yl)imidazo[1,2-a]pyridin-6-yl)picolinamide 2,2,2-trifluoroacetate]", "IC50": 0.01}
{"smiles": "CCOc1cc(NC(=O)c2cccc(C(F)(F)F)n2)cn2cc(C3CCOCC3)nc12", "note": "[Example 415, N-(8-ethoxy-2-(tetrahydro-2H-pyran-4-yl)imidazo[1,2-a]pyridin-6-yl)-6-(trifluoromethyl)picolinamide hydrochloride]", "IC50": 0.033}
{"smiles": "CCOc1cc(NC(=O)c2cccc(C(F)(F)F)n2)cn2cc([C@H]3[C@@H]4COC[C@@H]43)nc12", "note": "[Example 416, N-(2-((1R,5S,6s)-3-oxabicyclo[3.1.0]hexan-6-yl)-8-ethoxyimidazo[1,2-a]pyridin-6-yl)-6-(trifluoromethyl)picolinamide]", "IC50": 0.023}
{"smiles": "CCOc1cc(NC(=O)c2cccc(C)n2)cn2cc([C@H]3[C@@H]4COC[C@@H]43)nc12", "note": "[Example 417, N-(2-((1R,5S,6s)-3-oxabicyclo[3.1.0]hexan-6-yl)-8-ethoxyimidazo[1,2-a]pyridin-6-yl)-6-methylpicolinamide]", "IC50": 0.022}
{"smiles": "CC(C)Oc1cc(NC(=O)c2cccc(C(F)F)n2)cn2cc(C3CCOCC3)nc12", "note": "[Example 418, 6-(difluoromethyl)-N-(8-isopropoxy-2-(tetrahydro-2H-pyran-4-yl)imidazo[1,2-a]pyridin-6-yl)picolinamide 2,2,2-trifluoroacetate]", "IC50": 0.021}
{"smiles": "CC12CC(c3cn4cc(NC(=O)c5cccc(C(F)F)n5)cc(OC(F)F)c4n3)(CO1)C2", "note": "[Example 419, N-(8-(difluoromethoxy)-2-(1-methyl-2-oxabicyclo[2.1.1]hexan-4-yl)imidazo[1,2-a]pyridin-6-yl)-6-(difluoromethyl)picolinamide]", "IC50": 0.011}
{"smiles": "COc1ncccc1C(=O)Nc1cc(OC(F)F)c2nc(C34COC(C)(C3)C4)cn2c1", "note": "[Example 420, N-(8-(difluoromethoxy)-2-(1-methyl-2-oxabicyclo[2.1.1]hexan-4-yl)imidazo[1,2-a]pyridin-6-yl)-2-methoxynicotinamide 2,2,2-trifluoroacetate]", "IC50": 0.071}
{"smiles": "CC12CC(c3cn4cc(NC(=O)c5cccc6c5OCC6)cc(OC(F)F)c4n3)(CO1)C2", "note": "[Example 421, N-(8-(difluoromethoxy)-2-(1-methyl-2-oxabicyclo[2.1.1]hexan-4-yl)imidazo[1,2-a]pyridin-6-yl)-2,3-dihydrobenzofuran-7-carboxamide 2,2,2-trifluoroacetate]", "IC50": 0.018}
{"smiles": "CC12CC(c3cn4cc(NC(=O)c5cccc6ccnn56)cc(OC(F)F)c4n3)(CO1)C2", "note": "[Example 422, N-(8-(difluoromethoxy)-2-(1-methyl-2-oxabicyclo[2.1.1]hexan-4-yl)imidazo[1,2-a]pyridin-6-yl)pyrazolo[1,5-a]pyridine-7-carboxamide 2,2,2-trifluoroacetate]", "IC50": 0.012}
{"smiles": "Cn1ccc(C(=O)Nc2cc(OC(F)F)c3nc(C45COC(C)(C4)C5)cn3c2)n1", "note": "[Example 423, N-(8-(difluoromethoxy)-2-(1-methyl-2-oxabicyclo[2.1.1]hexan-4-yl)imidazo[1,2-a]pyridin-6-yl)-1-methyl-1H-pyrazole-3-carboxamide 2,2,2-trifluoroacetate]", "IC50": 0.092}
{"smiles": "COc1ccccc1C(=O)Nc1cn2cc(C34COC(C)(C3)C4)nc2c(F)c1OC(C)C", "note": "[Example 424, N-(8-fluoro-7-isopropoxy-2-(1-methyl-2-oxabicyclo[2.1.1]hexan-4-yl)imidazo[1,2-a]pyridin-6-yl)-2-methoxybenzamide 2,2,2-trifluoroacetate]", "IC50": 0.017}
{"smiles": "Cc1cccc(C(=O)Nc2cn3cc(C45COC(C)(C4)C5)nc3c(F)c2OC(C)C)c1F", "note": "[Example 425, 2-fluoro-N-(8-fluoro-7-isopropoxy-2-(1-methyl-2-oxabicyclo[2.1.1]hexan-4-yl)imidazo[1,2-a]pyridin-6-yl)-3-methylbenzamide 2,2,2-trifluoroacetate]", "IC50": 0.003}
{"smiles": "COc1cccc(C(=O)Nc2cn3cc(C45COC(C)(C4)C5)nc3c(F)c2OC(C)C)n1", "note": "[Example 426, N-(8-fluoro-7-isopropoxy-2-(1-methyl-2-oxabicyclo[2.1.1]hexan-4-yl)imidazo[1,2-a]pyridin-6-yl)-6-methoxypicolinamide]", "IC50": 0.002}
{"smiles": "COc1c(NC(=O)c2cccc(C(F)F)n2)cn2cc(C3CCOCC3)nc2c1C", "note": "[Example 427, 6-(difluoromethyl)-N-(7-methoxy-8-methyl-2-(tetrahydro-2H-pyran-4-yl)imidazo[1,2-a]pyridin-6-yl)picolinamide]", "IC50": 0.003}
{"smiles": "COc1ncccc1C(=O)Nc1cn2cc(C34COC(C)(C3)C4)nc2c(F)c1OC(C)C", "note": "[Example 428, N-(8-fluoro-7-isopropoxy-2-(1-methyl-2-oxabicyclo[2.1.1]hexan-4-yl)imidazo[1,2-a]pyridin-6-yl)-2-methoxynicotinamide]", "IC50": 0.01}
{"smiles": "CC(C)Oc1c(NC(=O)c2cccc(OCC(F)F)n2)cn2cc(C34COC(C)(C3)C4)nc2c1F", "note": "[Example 429, 6-(2,2-difluoroethoxy)-N-(8-fluoro-7-isopropoxy-2-(1-methyl-2-oxabicyclo[2.1.1]hexan-4-yl)imidazo[1,2-a]pyridin-6-yl)picolinamide 2,2,2-trifluoroacetate]", "IC50": 0.006}
{"smiles": "CC(C)Oc1c(NC(=O)c2coc(C(F)F)n2)cn2cc(C34COC(C)(C3)C4)nc2c1F", "note": "[Example 430, 2-(difluoromethyl)-N-(8-fluoro-7-isopropoxy-2-(1-methyl-2-oxabicyclo[2.1.1]hexan-4-yl)imidazo[1,2-a]pyridin-6-yl)oxazole-4-carboxamide 2,2,2-trifluoroacetate]", "IC50": 0.008}
{"smiles": "CC(C)Oc1c(NC(=O)c2coc(C3CC3)n2)cn2cc(C34COC(C)(C3)C4)nc2c1F", "note": "[Example 431, 2-cyclopropyl-N-(8-fluoro-7-isopropoxy-2-(1-methyl-2-oxabicyclo[2.1.1]hexan-4-yl)imidazo[1,2-a]pyridin-6-yl)oxazole-4-carboxamide]", "IC50": 0.001}
{"smiles": "CC(C)Oc1c(NC(=O)c2ccn(C)n2)cn2cc(C34COC(C)(C3)C4)nc2c1F", "note": "[Example 432, N-(8-fluoro-7-isopropoxy-2-(1-methyl-2-oxabicyclo[2.1.1]hexan-4-yl)imidazo[1,2-a]pyridin-6-yl)-1-methyl-1H-pyrazole-3-carboxamide 2,2,2-trifluoroacetate]", "IC50": 0.005}
